# Values of other authors in US5330766A, “Sustained release pharmaceutical composition” (priority 1989, dated 1994).
# Counter-ions that a name gives are not always drawn. Like-named read-outs stand apart in the source and are kept apart here.
# Assays:
# [1] = not given; remark: listed apart in the source
compound,measurement,setting,value
NCCCCCC(=O)O [Aminocaproic acid],pKA,first or only value given,4.43
same,pKA,second value,10.73
CCCC(CCC)C(=O)O[C@H]1C[C@H]2CC[C@@H](C1)[N+]2(C)C [Anisotropine methylbromide],"SOLUBILITY (AQUEOUS), in words",[1],soluble
CN1CCC(=C2c3ccccc3CCc3cccnc32)CC1 [Azatadine maleate],"SOLUBILITY (AQUEOUS), in words",[1],very soluble
same,pKA,first or only value given,9.3
C[C@@H](Cc1ccccc1)N(C)Cc1ccccc1 [Benzphetamine hydrochloride],pKA,first or only value given,6.6
CCC(C)C1(CC)C(=O)NC(=O)NC1=O (stereo not shown) [Butabarbital sodium],"SOLUBILITY (AQUEOUS), in words",[1],freely soluble
same,pKA,first or only value given,7.9
CN(C)CCOC(c1ccc(Cl)cc1)c1ccccn1 (stereo not shown) [Carbinoxamine maleate],pKA,first or only value given,8.1
O=C(O)c1ccccc1O [Choline salicylate],"SOLUBILITY (AQUEOUS), in words",[1],very soluble
C[N+]12CCC(CC1)C(OC(=O)C(O)(c1ccccc1)c1ccccc1)C2 (stereo not shown) [Clidinium bromide],"SOLUBILITY (AQUEOUS), in words",[1],soluble
CCCCCCCCCCCCCCCC(=O)OC1C(SC)OC(C(NC(=O)C2CC(CCC)CN2C)C(C)Cl)C(O)C1O (stereo not shown) [Clindamycin Palmitate HCl],"SOLUBILITY (AQUEOUS), in words",[1],freely soluble
Cc1onc(-c2ccccc2Cl)c1C(=O)N[C@@H]1C(=O)N2[C@@H]1SC(C)(C)[C@@H]2C(=O)O [Cloxacillin sodium],pKA,first or only value given,2.7
COc1cc2c(c(OC)c1OC)-c1ccc(OC)c(=O)cc1[C@@H](NC(C)=O)CC2 [Colchicine],pKA,first or only value given,1.7
same,pKA,second value,12.4
C[C@H](CN1CCOCC1)C(C(=O)N1CCCC1)(c1ccccc1)c1ccccc1 [Dextromoramide tartrate],pKA,first or only value given,7.1
CC(C)N(CCC(C(N)=O)(c1ccccc1)c1ccccn1)C(C)C (stereo not shown) [Disopyramide phosphate],pKA,first or only value given,8.4
CCC1(C)CC(=O)NC1=O (stereo not shown) [Ethosuximide],pKA,first or only value given,9.0
CCNC(C)Cc1cccc(C(F)(F)F)c1 (stereo not shown) [Fenfluramine hydrochloride],pKA,first or only value given,9.1
COc1ccc2c3c1O[C@H]1C(=O)CC[C@H]4[C@@H](C2)N(C)CC[C@]314.O=C(O)C(O)C(O)C(=O)O [Hydrocodone bitartrate],pKA,first or only value given,8.3
OCCOCCN1CCN(C(c2ccccc2)c2ccc(Cl)cc2)CC1 (stereo not shown) [Hydroxyzine hydrochloride],pKA,first or only value given,2.6
same,pKA,second value,7.0
NNC(=O)c1ccncc1 [Isoniazid],pKA,,10.8
same,pKA,second value,3.5
Nc1nc2c(c(=O)[nH]1)N(C=O)C(CNc1ccc(C(=O)N[C@@H](CCC(=O)O)C(=O)O)cc1)CN2 (stereo partly shown) [Leucovorin calcium],"SOLUBILITY (AQUEOUS), in words",[1],very soluble
same,pKA,,10.4
same,pKA,first or only value given,3.1
same,pKA,second value,4.8
CN1CCC(CN2c3ccccc3Sc3ccccc32)C1 (stereo not shown) [Methdilazine HCl],pKA,first or only value given,7.5
COC(=O)C(c1ccccc1)C1CCCCN1 (stereo not shown) [Methylphenidate hydrochloride],"SOLUBILITY (AQUEOUS), in words",[1],freely soluble
same,pKA,first or only value given,8.8
CCC1(CC)C(=O)NCC(C)C1=O (stereo not shown) [Methyprylon],pKA,first or only value given,12
CN1CCCC1c1cccnc1 (stereo not shown) [Nicotine],"SOLUBILITY (AQUEOUS), in words",[1],soluble
CO[C@@H]1[C@@H](OC(N)=O)[C@@H](O)[C@H](Oc2ccc3c(O)c(NC(=O)c4ccc(O)c(CC=C(C)C)c4)c(=O)oc3c2C)OC1(C)C [Novobiocin Sodium],pKA,second value,9.1
CCN(CC)CC#CCOC(=O)C(O)(c1ccccc1)C1CCCCC1 (stereo not shown) [Oxybutynin hydrochloride],pKA,first or only value given,6.96
CN(C)C1C(=O)C(C(N)=O)=C(O)C2(O)C(=O)C3=C(O)c4c(O)cccc4C(C)(O)C3C(O)C12 (stereo not shown) [Oxytetracycline HCl],pKA,,9.1
same,pKA,first or only value given,3.3
same,pKA,second value,7.3
COc1ccc(Cc2nccc3cc(OC)c(OC)cc23)cc1OC [Papaverine hydrochloride],pKA,first or only value given,6.4
CC(C)(S)[C@@H](N)C(=O)O [Penicillamine HCl],pKA,"first or only value given, HCl",8.0
same,pKA,second value,10.8
CC(C)(S)[C@@H](N)C(=O)O [Penicillamine],pKA,first or only value given,1.8
CCOC(=O)C1(c2ccccc2)CCN(C)CC1 [Pethidine hydrochloride],"SOLUBILITY (AQUEOUS), in words",[1],very soluble
C[C@H]1[C@H](c2ccccc2)OCCN1C [Phendimetrazine tartrate],"SOLUBILITY (AQUEOUS), in words",[1],freely soluble
same,pKA,first or only value given,7.6
CC1NCCOC1c1ccccc1 (stereo not shown) [Phenmetrazine hydrochloride],pKA,first or only value given,8.4
CC(COc1ccccc1)N(CCCl)Cc1ccccc1 (stereo not shown) [Phenoxybenzamine hydrochloride],pKA,first or only value given,4.4
CC(N)C(O)c1ccccc1 (stereo not shown) [Phenylpropanolamine hydrochloride],pKA,first or only value given,9
O=C1NC(=O)C(c2ccccc2)(c2ccccc2)N1 [Phenytoin sodium],"SOLUBILITY (AQUEOUS), in words",[1],soluble
C[n+]1ccccc1/C=N/O [Pralidoxime chloride],pKA,first or only value given,8
CC(C)[N+](C)(CCOC(=O)C1c2ccccc2Oc2ccccc21)C(C)C [Propantheline bromide],"SOLUBILITY (AQUEOUS), in words",[1],very soluble
same,pKA,first or only value given,9.0
C=CCC1(C(C)CCC)C(=O)NC(=O)NC1=O (stereo not shown) [Secobarbital sodium],pKA,first or only value given,7.5
CC(C)(C)NC[C@H](O)COc1nsnc1N1CCOCC1 [Timolol maleate],"SOLUBILITY (AQUEOUS), in words",[1],freely soluble
same,pKA,first or only value given,9
COc1cc(C(=O)NCc2ccc(OCCN(C)C)cc2)cc(OC)c1OC [Trimethobenzamide hydrochloride],pKA,first or only value given,8.3
CN(C)CCN(Cc1ccccc1)c1ccccn1 [Tripelennamine citrate],pKA,first or only value given,3.9
same,pKA,second value,9.0
